Measurements from article PMC12806454 (Quantitative Biology, 2024).

Legend:
[1] = rat, in vivo, iv; cited from earlier work
Mpro of HKU1 = Mpro of HKU1 (Human coronavirus HKU1, UniProt P0C6X2); assay: biochemical
Mpro of NL63 = Mpro of NL63 (Human coronavirus NL63, UniProt P0C6X5); assay: biochemical
Mpro of OC43 = Mpro of OC43 (Human coronavirus OC43, UniProt P0C6X6); assay: biochemical
Mpro of MERS = Mpro of MERS (Middle East respiratory syndrome-related coronavirus, UniProt K9N7C7); assay: biochemical
Mpro of SARS-CoV-1 = Mpro of SARS-CoV-1 (Severe acute respiratory syndrome coronavirus, UniProt P0C6X7); assay: biochemical
Mpro of 229E = Mpro of 229E (Human coronavirus 229E, UniProt P0C6X1); assay: biochemical
Mpro of 229E, sequence (P0C6X1 2966-3267): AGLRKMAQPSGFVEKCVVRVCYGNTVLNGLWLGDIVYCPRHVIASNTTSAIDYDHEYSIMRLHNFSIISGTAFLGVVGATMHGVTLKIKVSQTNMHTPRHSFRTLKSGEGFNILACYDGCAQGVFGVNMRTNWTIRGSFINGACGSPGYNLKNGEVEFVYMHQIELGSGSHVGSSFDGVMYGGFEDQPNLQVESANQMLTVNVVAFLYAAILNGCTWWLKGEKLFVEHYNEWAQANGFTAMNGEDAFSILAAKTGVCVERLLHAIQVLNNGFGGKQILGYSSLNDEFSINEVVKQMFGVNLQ

Mpro of HKU1, sequence (P0C6X2 3335-3637): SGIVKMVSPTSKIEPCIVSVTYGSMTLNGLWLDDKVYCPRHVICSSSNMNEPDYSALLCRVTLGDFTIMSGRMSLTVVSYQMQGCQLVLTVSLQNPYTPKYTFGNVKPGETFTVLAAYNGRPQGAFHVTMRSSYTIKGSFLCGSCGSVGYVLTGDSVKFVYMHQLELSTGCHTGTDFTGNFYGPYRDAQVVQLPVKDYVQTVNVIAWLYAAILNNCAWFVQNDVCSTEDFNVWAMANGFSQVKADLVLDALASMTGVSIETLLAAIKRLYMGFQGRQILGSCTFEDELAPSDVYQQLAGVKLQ
Mpro of NL63, sequence (P0C6X5 2940-3242): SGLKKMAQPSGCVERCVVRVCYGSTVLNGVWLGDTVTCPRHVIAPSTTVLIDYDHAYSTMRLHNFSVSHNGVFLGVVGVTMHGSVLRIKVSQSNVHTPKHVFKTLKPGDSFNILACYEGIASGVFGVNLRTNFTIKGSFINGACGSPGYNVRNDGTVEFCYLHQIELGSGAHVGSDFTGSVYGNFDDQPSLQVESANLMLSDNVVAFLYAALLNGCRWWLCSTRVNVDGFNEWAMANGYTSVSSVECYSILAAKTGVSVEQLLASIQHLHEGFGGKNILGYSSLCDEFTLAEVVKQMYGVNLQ
Mpro of MERS, sequence (K9N7C7 3248-3553 limits assumed): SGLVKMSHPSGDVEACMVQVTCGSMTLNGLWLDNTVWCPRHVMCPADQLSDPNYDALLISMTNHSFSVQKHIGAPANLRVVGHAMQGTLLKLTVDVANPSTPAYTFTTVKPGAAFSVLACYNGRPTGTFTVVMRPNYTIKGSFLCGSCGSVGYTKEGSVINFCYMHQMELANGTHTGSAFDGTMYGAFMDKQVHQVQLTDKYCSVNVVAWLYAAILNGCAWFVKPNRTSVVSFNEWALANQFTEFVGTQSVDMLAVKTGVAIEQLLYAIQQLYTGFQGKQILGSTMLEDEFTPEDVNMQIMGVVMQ
Mpro of OC43, sequence (P0C6X6 3247-3549): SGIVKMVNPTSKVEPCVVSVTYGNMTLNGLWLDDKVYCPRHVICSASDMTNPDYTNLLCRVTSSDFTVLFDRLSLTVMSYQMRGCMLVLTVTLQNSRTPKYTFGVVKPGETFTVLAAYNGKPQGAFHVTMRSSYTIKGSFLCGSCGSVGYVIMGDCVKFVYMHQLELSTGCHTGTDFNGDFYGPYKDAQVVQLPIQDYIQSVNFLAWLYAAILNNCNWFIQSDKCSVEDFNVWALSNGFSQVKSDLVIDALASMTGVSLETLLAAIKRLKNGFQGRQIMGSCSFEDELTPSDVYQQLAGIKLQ

SMILES	half-life [1]	IC50 (Mpro of HKU1)	IC50 (Mpro of NL63)	IC50 (Mpro of OC43)	IC50 (Mpro of MERS)	IC50 (Mpro of SARS-CoV-1)	IC50 (Mpro of 229E)
Cn1cnc(Cn2c(=O)[nH]/c(=N\c3cc4cn(C)nc4cc3Cl)n(Cc3cc(F)c(F)cc3F)c2=O)n1 [Ensitrelvir, ensitrelvir]	2.4 h						
CC(C)CC(NC(=O)OCc1ccccc1)C(=O)NC(CC1CCNC1=O)C(O)S(=O)(=O)O (centres unmarked) [GC376]		73.3 nM	438 nM				
O=C(NC1CCCC1)C(=O)[C@H](C[C@@H]1CCNC1=O)NC(=O)[C@@H]1[C@H]2CCC[C@H]2CN1C(=O)[C@@H](NC(=O)C(F)(F)F)C1CCCCC1 [Leritrelvir, leritrelvir]	4.8 h	52.3 nM	272 nM	53.2 nM	945 nM	73 nM	101 nM
CC(C)(C)[C@H](NC(=O)C(F)(F)F)C(=O)N1C[C@H]2[C@@H]([C@H]1C(=O)N[C@H](C#N)C[C@@H]1CCNC1=O)C2(C)C [Nirmatrelvir, nirmatrelvir]	0.5 h						
